Laboratory results from paper PMC8879702, “Discovery of Small Molecule Activators of Chemokine Receptor CXCR4 That Improve Diabetic Wound Healing” (International Journal of Molecular Sciences, 2022).

System: diabetic wounds in Db mice
Test: full-thickness excisional 8 mm wound healing in diabetic Db mice
Format: in vivo
Procedure: We examined the ability of our lead compound to improve diabetic wound healing in vivo. Full-thickness excisional 8 mm wounds were created in Db mice and were immediately treated with 10 µM UCUF-728 or PBS control. We monitored wound healing over the course of 22 days. Initial wound size was calculated immediately after wounding, and wound closure was assessed over time as the percentage of initial wound area. Figure 4A depicts the wound healing effect of UCUF-728 application on the excision wound model for sequential days following injury. […] The effect of UCUF-728 treatment on angiogenesis was assessed using immunohistochemistry for the endothelial marker CD31. Representative photos of immunoperoxidase staining for CD31 at 7 days in diabetic wounds treated with PBS or UCUF-728 are shown in Figure 4C.
All animal experiments were approved by the Institutional Animal Care and Use Committee at the University of Colorado Denver—Anschutz Medical Campus, and experimental protocols followed the guidelines described in the NIH Guide for the Care and Use of Laboratory Animals. In these experiments, we used 10-week-old, female, genetically diabetic C57BKS.Cg-m/Leprdb/J (Db) mice and heterozygous, non-diabetic (non-Db), age-matched female controls from the Jackson Laboratory (Bar Harbor, ME, USA). Mice were anesthetized with inhaled isoflurane. Each mouse was shaved and depilated before wounding. The dorsal skin was swabbed with alcohol and Betadine (Purdue Pharma, Stamford, CT, USA). Each mouse received a single, full-thickness dorsal wound (including panniculus carnosum) with an 8-mm punch biopsy (Miltex Inc., York, PA, USA). After wounding, a Hamilton syringe was used to deliver 50 μL of either 10 uM CAG1 or PBS, as a control. Ten […] were injected intradermally at 12, 3, 6 and 9 o’clock and at the wound base. All wounds were dressed with Tegaderm (3M, St. Paul, MN, USA), which was subsequently removed on postoperative day 2. Postoperatively, the mice received a subcutaneous injection of an analgesic, Banamine (Schering-Plough Animal Health Corp., Union, NJ, USA). A full-thickness skin sample, centered on the wound, was harvested 3 and 7 days after surgery (n = 5 per timepoint).

SMILES: COc1ccc(OC)c(NS(=O)(=O)c2ccc(-c3cnc(C4CC4)o3)cc2)c1 [Compound 19]
- time of full closure (Db mice, 8 mm wound, 10 µM intradermal at wounding, PBS 22 days): 14 days
- wound surface area (Db wounds, post-injury day 6, vs PBS): decrease in the wound surface area
- reduction of wound closure time (diabetic mice, vs PBS): 36%
- number of vessels (CD31 staining) (diabetic wounds, 7 days, vs PBS): significant increase in the number of vessels
